# How the values were obtained:
# Type in all cases: physicochemical
# [1] = Solubility at 25° C. from exponential fit of temperature-solubility curves; conditions: from extrapolation of temperature-solubility curves
# Description: The solubility of 2-(dodecylsulfonyl)octan-4-one at 25° C. in various solvents or perfumery raw materials has been determined based on the data presented in Table 9. For each solvent or perfumery raw material, the measured solubility as a function of temperature has been fitted to an exponential function. The solubility at 25° C. has been obtained by extrapolation or interpolation of this exponential function. The results/exponential curves are shown in the Figure (black triangle: DIPG, grey squares: IPM, open diamonds: Hedione®, black circles: gamma-nonalactone and Cetiol® Ultimate (80/20); the continuous lines represent exponential functions fit to the experimental data).
# [2] = Determination of the solubilization temperature (T_sol), shallow heating ramp to 100% transparency
# Description: (§1) Solid 2-(dodecylsulfonyl)octan-4-one was mixed with different solvents and transferred to a 8 mL vial equipped with an overhead stirrer. The sample was placed in a Crystalline PV instrument (Technobis, The Netherlands). Heating and cooling steps were applied under mechanical stirring, and the samples were monitored by following transparency via a LED light beam that passes through the vial. Full (100%) transparency is attained when 2-(dodecylsulfonyl)octan-4-one is completely dissolved in the solvent. On the other hand, when the measured values of transparency are below 100% the dissolution process is still incomplete.
# (§2) A first heating step was carried out by quickly (+5° C./min) heating the sample above its solubility temperature to 60° C. After complete dissolution, a cooling ramp to 1° C. was applied (−2° C./min), i.e. below the solubility temperature of the sample, where the sample was kept stirring until 2-(dodecylsulfonyl)octan-4-one has crystallized. Subsequently a second heating step was carried out by applying a shallow heating ramp (+0.1° C./min) in order to dissolve the material under quasi-isothermal conditions. The transparency of the sample was monitored as a function of time during the heating ramp. Once the signal has attained 100% transparency, the dissolution process was complete and the respective temperature was taken as the solubilization temperature (T_sol).
# Following the methodology described above, 2-(dodecylsulfonyl)octan-4-one was mixed with various solvents/liquid carriers that are suitable for perfumery compositions or with perfumery raw materials at a concentration of 5 wt. % and the solubilization temperature has been determined. The solvents and perfumery raw materials used and the respective solubilization temperatures are depicted in Tables 1-3 below. […]
# [3] = Solubility measurements by light transparency (Crystalline PV instrument) on heating to 60° C. and cooling
# Description: as §1, §2
# Following the methodology described above, 2-(dodecylsulfonyl)octan-4-one was mixed with various solvents/liquid carriers that are suitable for perfumery compositions or with perfumery raw materials at a concentration of 5 wt. % and the solubilization temperature has been determined. The solvents and perfumery raw materials used and the respective solubilization temperatures are depicted in Tables 1-3 below.
# [4] = 5 wt. % in Dimethylglutarate (DBE-5)
# [5] = 5 wt. % in Dipropylene glycol (DIPG)
# [6] = 5 wt. % in Fragrance composition F1
# [7] = 5 wt. % in Fragrance composition F2
# [8] = 5 wt. % in Fragrance composition F3
# [9] = 5 wt. % in Fragrance composition F4
# [10] = 5 wt. % in Fragrance composition F5
# [11] = 5 wt. % in Isopropyl myristate (IPM)
# [12] = 5 wt. % in gamma-Nonalactone/Cetiol ® Ultimate (80/20; w/w)
# [13] = 5 wt. % in gamma-Valerolactone/Isopropyl Myristate (IPM) (70/30 w/w)
structure (smiles),measurement,setting,value
CCCCCCCCCCCCS(=O)(=O)C(C)CC(=O)CCCC (centres unmarked) [2-(dodecylsulfonyl)octan-4-one],Solubility of 2-(dodecylsulfonyl)octan-4-one at 25° C.,[1]; in gamma-Valerolactone/IPM (70:30 w/w),11.3 wt. %
same,Solubility of 2-(dodecylsulfonyl)octan-4-one at 25° C.,[1]; in gamma-Valerolactone,5.5 wt. %
same,T_sol,[2]; 5 wt. % in Cetiol ® Ultimate,45.4 °C
same,T_sol,[2]; [4],27.3 °C
same,T_sol,[2]; [5],44.6 °C
same,T_sol,[2]; 5 wt. % in Ethyl lactate,26.5 °C
same,T_sol,[2]; [6],21.1 °C
same,T_sol,[2]; [7],19.8 °C
same,T_sol,[2]; [8],17.8 °C
same,T_sol,[2]; [9],24.0 °C
same,T_sol,[2]; [10],16.3 °C
same,T_sol,[2]; 5 wt. % in Hedione ®,21.0 °C
same,T_sol,[2]; [11],33.5 °C
same,T_sol,[2]; 5 wt. % in Triacetine,41.1 °C
same,T_sol,[2]; 5 wt. % in Triethyl citrate,36.2 °C
same,T_sol,[2]; 5 wt. % in gamma-Decalactone,14.6 °C
same,T_sol,[2]; [12],10.5 °C
same,T_sol,[2]; 5 wt. % in gamma-Undecalactone,15.3 °C
same,T_sol,[2]; 5 wt. % in gamma-Valerolactone,23.0 °C
same,T_sol,[2]; [13],15.3 °C
same,Soluble after cooling to 25° C.,[3]; 5 wt. % in Cetiol ® Ultimate,not capable of fully dissolving and no
same,Soluble at 60° C.,[3]; 5 wt. % in Cetiol ® Ultimate,yes
same,Soluble after cooling to 25° C.,[3]; [4],not capable of fully dissolving and no
same,Soluble at 60° C.,[3]; [4],yes
same,Soluble after cooling to 25° C.,[3]; [5],not capable of fully dissolving and no
same,Soluble at 60° C.,[3]; [5],yes
same,Soluble after cooling to 25° C.,[3]; 5 wt. % in Ethyl lactate,not capable of fully dissolving and no
same,Soluble at 60° C.,[3]; 5 wt. % in Ethyl lactate,yes
same,Soluble after cooling to 25° C.,[3]; [6],yes
same,Soluble at 60° C.,[3]; [6],yes
same,Soluble after cooling to 25° C.,[3]; [7],yes
same,Soluble at 60° C.,[3]; [7],yes
same,Soluble after cooling to 25° C.,[3]; [8],yes
same,Soluble at 60° C.,[3]; [8],yes
same,Soluble after cooling to 25° C.,[3]; [9],yes
same,Soluble at 60° C.,[3]; [9],yes
same,Soluble after cooling to 25° C.,[3]; [10],yes
same,Soluble at 60° C.,[3]; [10],yes
same,Soluble after cooling to 25° C.,[3]; 5 wt. % in Hedione ®,yes
same,Soluble at 60° C.,[3]; 5 wt. % in Hedione ®,yes
same,Soluble after cooling to 25° C.,[3]; [11],not capable of fully dissolving and no
same,Soluble at 60° C.,[3]; [11],yes
same,Soluble after cooling to 25° C.,[3]; 5 wt. % in Triacetine,not capable of fully dissolving and no
same,Soluble at 60° C.,[3]; 5 wt. % in Triacetine,yes
same,Soluble after cooling to 25° C.,[3]; 5 wt. % in Triethyl citrate,not capable of fully dissolving and no
same,Soluble at 60° C.,[3]; 5 wt. % in Triethyl citrate,yes
same,Soluble after cooling to 25° C.,[3]; 5 wt. % in gamma-Decalactone,yes
same,Soluble at 60° C.,[3]; 5 wt. % in gamma-Decalactone,yes
same,Soluble after cooling to 25° C.,[3]; [12],yes
same,Soluble at 60° C.,[3]; [12],yes
same,Soluble after cooling to 25° C.,[3]; 5 wt. % in gamma-Undecalactone,yes
same,Soluble at 60° C.,[3]; 5 wt. % in gamma-Undecalactone,yes
same,Soluble after cooling to 25° C.,[3]; 5 wt. % in gamma-Valerolactone,yes
same,Soluble at 60° C.,[3]; 5 wt. % in gamma-Valerolactone,yes
same,Soluble after cooling to 25° C.,[3]; [13],yes
same,Soluble at 60° C.,[3]; [13],yes

# Reference: patent US20260102324A1, “PERFUMING COMPOSITIONS COMPRISING A 2-(ALKYLSULFONYL)OCTAN-4-ONE” (FIRMENICH SA, priority 2022, published 2026)
